Results: patent US10837005B2, “Recombinant microorganism capable of producing methyl anthranilate and method of producing methyl anthranilate using the same” (priority 2019, dated 2020)

Key:
[1] = Partition coefficient between aqueous-phase culture medium and organic-phase tributyrin; assay type: physicochemical; details: aqueous phase: Carbon-free MR minimum medium, organic phase tributyrin
Experimental: In order to solve the problem of toxicity of MANT, a two-phase aqueous organic culture system was used in the present invention (FIG. 5 in part a). Tributyrin was used as an organic solvent to extract MANT from the culture medium. Tributyrin extraction capacity was determined by measuring the partition coefficient between the aqueous medium of MANT and tributyrin, the solvent, and the result is shown in Table 2. Tributyrin is also capable of extracting ANT, but the amount of ANT extracted is very small compared to the amount of MANT and thus is negligible. […] The culture was carried out under the same conditions as in Example 1-2, except that, when IPTG was added, 10 mL of tributyrin was added therewith. MANT productivity was calculated on an aqueous phase basis (that is, Titer=Caq·Vaq+Corg·Vorg)/Vaq)).

[2] = system: E. coli; test: MANT toxicity test on E. coli; assay type: cell-based
Experimental: […]. The low resistance of E. coli to MANT could adversely affect E. coli mutations that produce MANT at high concentrations. Thus, E. coli was cultured in a modified culture system.

[3] = system: C. glutamicum ATCC 13032
[4] = system: Pseudomonas putida KT2440

Row | SMILES | Partition coefficient ([1]; pH 7.0) | MANT concentration E. coli can withstand [2] | final OD600 value ([2]; E. coli exposed to various concentrations of MANT up to 1 g/L) | final OD600 value relative to base strain not exposed to MANT ([2]; exposed to 0.5 g/L of MANT) | MANT concentration at which growth was completely inhibited ([3]; C. glutamicum) | growth profile ([3]; C. glutamicum ATCC 13032, various MANT concentrations) | MANT concentration at which strain was not capable of growing ([4]; P. putida KT2440) | growth profile ([4]; P. putida KT2440, various MANT concentrations) | Partition coefficient ([1]; pH 5.0) | Partition coefficient ([1]; pH 9.0)
1 | COC(=O)c1ccccc1N [MANT, Methyl anthranilate] | 420.1 ± 7.6 | up to 0.5 g/L | significantly reduced | about one third | 2.0 g/L | concentration-dependent inhibition | 1.0 g/L | concentration-dependent inhibition | – | –
2 | Nc1ccccc1C(=O)O [Anthranilate, anthranilic acid] | 0.1 ± 0.0 | – | – | – | – | – | – | – | 4.7 ± 0.2 | Very low
